Source: US20240208992A1, “MACROCYCLES AS CFTR MODULATORS” (Idorsia Pharmaceuticals Ltd, priority 2021, published 2024)
Blank lines part the entries; values can stand above or below the compound they belong to.

Biological target: human F508del-CFTR (Homo sapiens, UniProt P13569, DEL508-508)
Assay: F508del-CFTR cell surface expression (corrector activity), DiscoveRx ß-galactosidase complementation chemiluminescence assay in recombinant U2OS cell line;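 also: U2OS cells co-expressing ProLink-tagged F508del-CFTR and a membrane-anchored enzyme acceptor, where more surface CFTR restores β-galactosidase activity measured by chemiluminescence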
Conditions: for EC50: EC50, F508del-CFTR cell surface expression
[1] = U2OS cells, 16h compound incubation, geomean values
[2] = U2OS cell line, 16h compound incubation, geomean values
[3] = U2OS, in relation to the Emax of the corrector lumacaftor (=100%), U2OS cell line, 16h compound incubation, arithmetic mean values
[4] = U2OS cells, 16h compound incubation, geomean of several measurements
[5] = U2OS, in relation to the Emax of the corrector lumacaftor (=100%), U2OS cells, 16h compound incubation, arithmetic mean
[6] = U2OS, in relation to Emax of corrector lumacaftor (=100%), arithmetic mean values

Chain of human F508del-CFTR (P13569 with tags, fused parts or gaps DEL508-508): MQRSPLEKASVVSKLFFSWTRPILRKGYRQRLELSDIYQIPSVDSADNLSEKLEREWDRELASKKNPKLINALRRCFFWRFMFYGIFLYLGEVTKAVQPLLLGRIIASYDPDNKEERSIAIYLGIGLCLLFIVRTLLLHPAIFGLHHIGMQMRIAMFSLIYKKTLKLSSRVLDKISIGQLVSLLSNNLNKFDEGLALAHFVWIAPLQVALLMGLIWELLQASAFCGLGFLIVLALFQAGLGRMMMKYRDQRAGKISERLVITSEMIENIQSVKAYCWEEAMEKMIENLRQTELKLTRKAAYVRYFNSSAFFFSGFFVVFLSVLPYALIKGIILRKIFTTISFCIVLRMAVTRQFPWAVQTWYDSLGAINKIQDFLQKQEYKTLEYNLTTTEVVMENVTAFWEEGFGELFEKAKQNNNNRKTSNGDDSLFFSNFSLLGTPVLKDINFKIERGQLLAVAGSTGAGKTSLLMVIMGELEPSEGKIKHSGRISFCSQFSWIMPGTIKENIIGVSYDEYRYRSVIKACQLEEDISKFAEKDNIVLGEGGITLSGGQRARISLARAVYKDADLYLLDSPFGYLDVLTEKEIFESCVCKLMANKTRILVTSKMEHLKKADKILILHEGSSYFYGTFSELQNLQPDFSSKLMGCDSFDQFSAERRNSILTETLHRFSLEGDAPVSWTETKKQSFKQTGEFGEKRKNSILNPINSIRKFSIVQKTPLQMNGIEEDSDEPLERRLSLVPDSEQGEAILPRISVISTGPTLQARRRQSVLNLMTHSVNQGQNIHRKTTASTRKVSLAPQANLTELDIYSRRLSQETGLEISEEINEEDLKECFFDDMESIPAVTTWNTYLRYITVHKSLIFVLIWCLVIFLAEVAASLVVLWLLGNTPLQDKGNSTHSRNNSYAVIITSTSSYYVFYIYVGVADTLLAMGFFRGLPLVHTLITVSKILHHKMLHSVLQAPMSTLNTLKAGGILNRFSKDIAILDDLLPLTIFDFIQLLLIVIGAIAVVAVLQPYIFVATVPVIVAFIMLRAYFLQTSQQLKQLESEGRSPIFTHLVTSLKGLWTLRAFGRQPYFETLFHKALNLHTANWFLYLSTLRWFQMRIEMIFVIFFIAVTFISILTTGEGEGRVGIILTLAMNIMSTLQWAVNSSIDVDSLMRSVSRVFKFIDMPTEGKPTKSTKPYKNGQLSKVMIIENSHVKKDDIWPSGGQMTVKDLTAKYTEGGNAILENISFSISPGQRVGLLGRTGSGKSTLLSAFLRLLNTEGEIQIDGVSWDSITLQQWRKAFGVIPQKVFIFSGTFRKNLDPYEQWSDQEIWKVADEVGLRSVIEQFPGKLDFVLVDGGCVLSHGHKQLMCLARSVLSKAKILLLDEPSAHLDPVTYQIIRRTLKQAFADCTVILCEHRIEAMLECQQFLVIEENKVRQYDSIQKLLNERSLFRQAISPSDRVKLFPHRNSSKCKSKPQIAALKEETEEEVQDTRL

EC50 [1]: 394 nM | Emax (in relation to Emax of corrector lumacaftor (=100%), arithmetic mean values): 167%
Compound: COc1cc2c(cn1)OC[C@@H](Cc1ccccc1)NC(=O)[C@H]1CCCCN1C(=O)[C@H](CC(C)C)N(C)C(=O)C[C@@H](C(=O)NCCc1cc(C3CC3)on1)NC2=O [Example 526, (7S,11S,17aR,20R)-20-benzyl-N-(2-(5-cyclopropylisoxazol-3-yl)ethyl)-11-isobutyl-3-methoxy-10-methyl-5,9,12,18-tetraoxo-5,6,7,8,9,10,11,12,15,16,17,17a,18,19,20,21-hexadecahydro-14H-dipyrido[2,1-f:4′,3′-p][1]oxa[4,7,10,14]tetraazacycloheptadecine-7-carboxamide]

EC50 [2]: 506 nM | Emax [3]: 150%
Compound: CC(C)C[C@H]1C(=O)N(C)C2(CC2)C(=O)N[C@H](Cc2ccccc2)COc2cnc3ccc(F)cc3c2C(=O)N[C@H](C(=O)NCCc2cccc(-c3cnccn3)c2)CC(=O)N1C [Example 134, (3′S,7′S,13′R)-13′-benzyl-20′-fluoro-7′-isobutyl-6′,9′-dimethyl-1′,5′,8′,11′-tetraoxo-N-(3-(pyrazin-2-yl)phenethyl)-2′,3′,4′,5′,6′,7′,8′,9′,11′,12′,13′,14′-dodecahydro-1′H-spiro[cyclopropane-1,10′-[1]oxa[4,7,10,14]tetraazacycloheptadecino[17,16-c]quinoline]-3′-carboxamide]

Compound: COc1cccc(CCNC(=O)[C@@H]2CC(=O)N(C)[C@@H](CC(C)C)C(=O)N3CCCC[C@@H]3C(=O)N[C@H](Cc3ccccc3)COc3ccc4ncn(C)c4c3C(=O)N2)c1 [Example 17, (8S,12S,18aR,21R)-21-benzyl-12-isobutyl-N-(3-methoxyphenethyl)-5,11-dimethyl-6,10,13,19-tetraoxo-6,7,8,9,10,11,12,13,16,17,18,18a,19,20,21,22-hexadecahydro-5H,15H-imidazo[4′,5′:5,6]benzo[1,2-p]pyrido[2,1-f][1]oxa[4,7,10,14]tetraazacycloheptadecine-8-carboxamide]
EC50 [2]: 466 nM | Emax [3]: 180%

EC50 [4]: 34 nM | Emax [5]: 409%
Compound: Cc1cc2c3c(ccc2cn1)OC[C@@H](Cc1ccccc1)NC(=O)[C@@H](Cc1nc(C(F)(F)F)no1)N(C)C(=O)[C@H](CC(C)C)N(C)C(=O)C[C@@H](C(=O)NCCn1nnc(C2CC2)n1)NC3=O [Example 890, (3S,7S,10R,13R)-13-benzyl-N-(2-(5-cyclopropyl-2H-tetrazol-2-yl)ethyl)-7-isobutyl-6,9,20-trimethyl-1,5,8,11-tetraoxo-10-((3-(trifluoromethyl)-1,2,4-oxadiazol-5-yl)methyl)-1,2,3,4,5,6,7,8,9,10,11,12,13,14-tetradecahydro-[1]oxa[4,7,10,14]tetraazacycloheptadecino[16,17-f]isoquinoline-3-carboxamide]

EC50 [4]: 736 nM | Emax [5]: 390%
Compound: COc1cc(CCNC(=O)[C@@H]2CC(=O)N(C)[C@@H](CC(C)C)C(=O)N(C)C3(CC3)C(=O)N[C@H](Cc3ccccc3)COc3ccc4cnc(C)cc4c3C(=O)N2)on1 [Example 901, (3′S,7′S,13′R)-13′-benzyl-7′-isobutyl-N-(2-(3-methoxyisoxazol-5-yl)ethyl)-6′,9′,20′-trimethyl-1′,5′,8′,11′-tetraoxo-2′,3′,4′,5′,6′,7′,8′,9′,11′,12′,13′,14′-dodecahydro-1′H-spiro[cyclopropane-1,10′-[1]oxa[4,7,10,14]tetraazacycloheptadecino[16,17-f]isoquinoline]-3′-carboxamide]

EC50 [1]: 992 nM | Emax [6]: 314%
Compound: Cc1cc(CCNC(=O)[C@@H]2CC(=O)N(C)[C@@H](CC(C)C)C(=O)N3CCN(S(=O)(=O)c4cccnc4)C[C@@H]3C(=O)N[C@H](Cc3ccccc3)COc3ccc4ccccc4c3C(=O)N2)on1 [Example 475, (4aR,7R,18S,22S)-7-benzyl-22-isobutyl-21-methyl-N-(2-(3-methylisoxazol-5-yl)ethyl)-5,16,20,23-tetraoxo-3-(pyridin-3-ylsulfonyl)-2,3,4,4a,5,6,7,8,16,17,18,19,20,21,22,23-hexadecahydro-1H-naphtho[1,2-p]pyrazino[2,1-f][1]oxa[4,7,10,14]tetraazacycloheptadecine-18-carboxamide]

EC50 [2]: 731 nM | Emax [3]: 309%
Compound: CC(C)C[C@H]1C(=O)N2CCCC[C@@H]2C(=O)N[C@H](Cc2ccccc2)COc2cnc3ccccc3c2C(=O)N[C@H](C(=O)NCCc2cnn(C)c2)CC(=O)N1C [Example 83, (9S,13S,19aR,22R)-22-benzyl-13-isobutyl-12-methyl-N-(2-(1-methyl-1H-pyrazol-4-yl)ethyl)-7,11,14,20-tetraoxo-7,8,9,10,11,12,13,14,17,18,19,19a,20,21,22,23-hexadecahydro-16H-pyrido[2′,11:6,7][1]oxa[4,7,10,14]tetraazacycloheptadecino[17,16-c]quinoline-9-carboxamide]

Compound: COc1cccc(CCNC(=O)[C@@H]2CC(=O)N(C)[C@@H](CC(C)C)C(=O)N(C[C@@H]3CCCCO3)CC(=O)N[C@H](Cc3ccccc3)COc3ccc4ccccc4c3C(=O)N2)c1 (racemic) [Example 165, (3RS,7S,13R)-13-benzyl-7-isobutyl-N-(3-methoxyphenethyl)-6-methyl-1,5,8,11-tetraoxo-9-(((S)-tetrahydro-2H-pyran-2-yl)methyl)-1,2,3,4,5,6,7,8,9,10,11,12,13,14-tetradecahydronaphtho[1,2-p][1]oxa[4,7,10,14]tetraazacycloheptadecine-3-carboxamide]
EC50 [2]: 287 nM | Emax [3]: 149%

Compound: COc1cccc(CCNC(=O)[C@@H]2CC(=O)N(C)[C@@H](CC(C)C)C(=O)N(C)CC(=O)N[C@H](Cc3ccccc3)COc3ccc4ncccc4c3C(=O)N2)c1 [Example 441, (3S,7S,13R)-13-benzyl-7-isobutyl-N-(3-methoxyphenethyl)-6,9-dimethyl-1,5,8,11-tetraoxo-1,2,3,4,5,6,7,8,9,10,11,12,13,14-tetradecahydro-[1]oxa[4,7,10,14]tetraazacycloheptadecino[16,17-f]quinoline-3-carboxamide]
EC50 [1]: 815 nM | Emax [6]: 326%

EC50 [1]: 521 nM | Emax [6]: 215%
Compound: Cc1cc(CCNC(=O)[C@@H]2CC(=O)N(C)[C@@H](CC(C)C)C(=O)N3CCCC[C@@H]3C(=O)N[C@H](Cc3ccccc3)COc3ccc4c(C)noc4c3C(=O)N2)on1 [Example 629, (8S,12S,18aR,21R)-21-benzyl-12-isobutyl-3,11-dimethyl-N-(2-(3-methylisoxazol-5-yl)ethyl)-6,10,13,19-tetraoxo-6,7,8,9,10,11,12,13,16,17,18,18a,19,20,21,22-hexadecahydro-15H-isoxazolo[4′,5′:5,6]benzo[1,2-p]pyrido[2,1-f][1]oxa[4,7,10,14]tetraazacycloheptadecine-8-carboxamide]

Compound: COCCc1ccc(-c2noc(C[C@@H]3C(=O)N[C@H](Cc4ccccc4)COc4ccnc(OC)c4C(=O)N[C@H](C(=O)NCCc4noc(C5CC5)n4)CC(=O)N(C)[C@@H](CC(C)C)C(=O)N3C)n2)cc1 [Example 867, (3R,6R,9S,13S)-3-benzyl-N-(2-(5-cyclopropyl-1,2,4-oxadiazol-3-yl)ethyl)-9-isobutyl-16-methoxy-6-((3-(4-(2-methoxyethyl)phenyl)-1,2,4-oxadiazol-5-yl)methyl)-7,10-dimethyl-5,8,11,15-tetraoxo-2,3,4,5,6,7,8,9,10,11,12,13,14,15-tetradecahydropyrido[3,4-p][1]oxa[4,7,10,14]tetraazacycloheptadecine-13-carboxamide]
EC50 [4]: 31 nM | Emax [5]: 413%

EC50 [4]: 298 nM | Emax [5]: 507%
Compound: COc1cc(CCNC(=O)[C@@H]2CC(=O)N(C)[C@@H](CC(C)C)C(=O)N(C)[C@H](CC(F)F)C(=O)N[C@H](Cc3ccccc3)COc3ccc4cnc(C)cc4c3C(=O)N2)on1 [Example 931, (3S,7S,10R,13R)-13-benzyl-10-(2,2-difluoroethyl)-7-isobutyl-N-(2-(3-methoxyisoxazol-5-yl)ethyl)-6,9,20-trimethyl-1,5,8,11-tetraoxo-1,2,3,4,5,6,7,8,9,10,11,12,13,14-tetradecahydro-[1]oxa[4,7,10,14]tetraazacycloheptadecino[16,17-f]isoquinoline-3-carboxamide]

Compound: COc1cccc(CCNC(=O)[C@@H]2CC(=O)N(C)[C@@H](CC(C)C)C(=O)N3CCc4ccccc4[C@H]3C(=O)N[C@H](Cc3ccccc3)COc3ccnc(OC)c3C(=O)N2)c1 (mixture of isomers) [Example 569, (7S,11S,19bRS,22R)-22-benzyl-11-isobutyl-4-methoxy-N-(3-methoxyphenethyl)-10-methyl-5,9,12,20-tetraoxo-5,6,7,8,9,10,11,12,15,19b,20,21,22,23-tetradecahydro-14H-pyrido[3′,4′:16,17][1]oxa[4,7,10,14]tetraazacycloheptadecino[6,7-a]isoquinoline-7-carboxamide]
EC50 [1]: 108 nM | Emax [6]: 270%

EC50 [1]: 986 nM | Emax [6]: 222%
Compound: COc1cc2c(cn1)OC[C@@H](Cc1ccccc1)NC(=O)[C@H]1CCCCN1C(=O)[C@H](CC(C)C)N(C)C(=O)C[C@@H](C(=O)NCCc1cc(C3CC3)no1)NC2=O [Example 517, (7S,11S,17aR,20R)-20-benzyl-N-(2-(3-cyclopropylisoxazol-5-yl)ethyl)-11-isobutyl-3-methoxy-10-methyl-5,9,12,18-tetraoxo-5,6,7,8,9,10,11,12,15,16,17,17a,18,19,20,21-hexadecahydro-14H-dipyrido[2,1-f:2′,3′-p][1]oxa[4,7,10,14]tetraazacycloheptadecine-7-carboxamide]
